According to patent US20240381872A1, “SUBSTITUTED 2,3-DIHYDRO[1,3]THIAZOLO[4,5-B]PYRIDINES, SALTS THEREOF AND THEIR USE AS HERBICIDALLY ACTIVE SUBSTANCES” (BAYER AKTIENGESELLSCHAFT, priority 2021, published 2024):

Experiments:
Type in all cases: in vivo
[1] = test system: Alopecurus myosuroides (ALOMY); test: Herbicidal pre-emergence action, section C (Table C2); conditions: Alopecurus myosuroides, pre-emergence, 504 h; application rate 320 g/ha; visual grading after ca. 3 weeks vs untreated controls; read-out: pre-emergence activity against ALOMY in %
Text: (§1) Seeds of mono- and dicotyledonous weed plants and crop plants were sown, in plastic or organic planting pots, in sandy loam and covered with soil. The compounds according to the invention, formulated in the form of wettable powders (WP) or as emulsifiable concentrates (EC), were applied to the surface of the covering soil as aqueous suspension or emulsion, with the addition of 0.5% of an additive, at an application rate of 600 l of water/ha (converted). Following treatment, the pots were placed in a greenhouse and kept under optimum growth conditions for the test plants. The visual grading of the damage to the test plants was carried out after ca. 3 weeks in comparison to untreated controls (herbicidal effect in percent (%): 100% effect=plants have died off, 0% effect=as control plants).

[2] = test system: Triticum aestivum (TRZAS); test: Pre-emergence effects on crop plants, section D (Table D2); conditions: visual grading after ca. 3 weeks
How it was run: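 Read-out: visual percent injury versus untreated controls at ca. 3 weeks (0% as control, 100% dead). Treatment: aqueous WP/EC suspension or emulsion with 0.5% additive, 600 l/ha, on soil covering seeds in sandy loam, at 320 g/ha or below, under optimum greenhouse conditions.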

[3] = test system: Echinochloa crus-galli (ECHCG); test: Herbicidal pre-emergence action, section C (Table C3); conditions: Echinochloa crus-galli, pre-emergence, 504 h; application rate 320 g/ha; visual grading after ca. 3 weeks vs untreated controls; read-out: pre-emergence activity against ECHCG in %
Text: as §1

Setaria viridis (SETVI) = test: Herbicidal pre-emergence action, section C (Table C8); conditions: Setaria viridis, pre-emergence, 504 h; application rate 320 g/ha; visual grading after ca. 3 weeks; read-out: pre-emergence activity against SETVI in %
Text: as §1

Oryza sativa (ORYZA) [4] = test: Post-emergence effects on crop plants, section F (Table F3); conditions: Oryza sativa, 504 h, read-out: post-emergence activity against ORYZA in %
Text: (§2) Seeds of mono- and dicotyledonous weed plants and crop plants were sown, in plastic or organic planting pots, in sandy loam, covered with soil and grown in a greenhouse under controlled growth conditions. 2 to 3 weeks after sowing, the test plants were sprayed in the single-leaf stage. The compounds according to the invention, formulated in form of wettable powders (WP) or as emulsifiable concentrates (EC), were sprayed onto the green plant parts as aqueous suspension or emulsion, with the addition of 0.5% of an additive, at an application rate of 600 l of water/ha (converted). The test plants were placed in the greenhouse for ca. 3 weeks under optimum growth conditions, and then the effect of the preparations was assessed visually in comparison with untreated controls (herbicidal effect in percent (%): 100% effect=plants have died off, 0% effect=as control plants). Tables F1 to F4 below show the effects of selected compounds of the general formula (I) according to Table 1 on various crop plants and an application rate corresponding to 320 g/ha or below obtained by the experimental procedure mentioned above.

Brassica napus (BRSNW) [5] = test: Pre-emergence effects on crop plants, section D (Table D5); conditions: visual grading after ca. 3 weeks
Text: (§3) Seeds of mono- and dicotyledonous weed plants and crop plants were sown, in plastic or organic planting pots, in sandy loam and covered with soil. The compounds according to the invention, formulated in the form of wettable powders (WP) or as emulsifiable concentrates (EC), were applied to the surface of the covering soil as aqueous suspension or emulsion, with the addition of 0.5% of an additive, at an application rate of 600 l of water/ha (converted).
(§4) Following treatment, the pots were placed in a greenhouse and kept under optimum growth conditions for the test plants. The visual grading of the damage to the test plants was carried out after ca. 3 weeks in comparison to untreated controls (herbicidal effect in percent (%): 100% effect=plants have died off, 0% effect=as control plants).
(§5) Tables D1 to D5 below show the effects of various compounds of the general formula (I) according to Table 1 on various crop plants and an application rate corresponding to 320 g/ha or below obtained by the experimental procedure mentioned above in Biological Examples, Section C.

Zea mays (ZEAMX) [6] = test: Pre-emergence effects on crop plants, section D (Table D1); conditions: visual grading after ca. 3 weeks
Text: as §3, §4, §5

Glycine max (GLXMA) [7] = test: Post-emergence effects on crop plants, section F (Table F4)
How it was run: (§6)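 Visual % damage versus untreated controls (100% = plants died, 0% = as control), assessed ca. 3 weeks after post-emergence spraying. Greenhouse plants in sandy loam were treated at the single-leaf stage with WP/EC formulations, 0.5% additive, 600 l water/ha, at 320 g/ha or below.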

Veronica persica (VERPE) [8] = test: Herbicidal post-emergence action, section E (Table E9); conditions: Veronica persica, 504 h, application rate 320 g/ha, visual assessment ca. 3 weeks after spraying, read-out: post-emergence activity against VERPE in %
Text: as §2, with “plants).” for “plants). Tables F1 to F4 below show the effects of selected compounds of the general formula (I) according to Table 1 on various crop plants and an application rate corresponding to 320 g/ha or below obtained by the experimental procedure mentioned above.”

Oryza sativa (ORYZA) [9] = test: Pre-emergence effects on crop plants, section D (Table D3); conditions: visual grading after ca. 3 weeks
Text: as §3, §4, §5

[10] = test system: Triticum aestivum (TRZAS); test: Post-emergence effects on crop plants, section F (Table F2)
How it was run: as §6

Brassica napus (BRSNW) [11] = test: Post-emergence effects on crop plants, section F (Table F5); conditions: application rate 80 g/ha; for crop plant damage (phytotoxicity) in % at 80 g/ha: Brassica napus, 504 h, read-out: post-emergence activity against BRSNW in %
Text: as §2

[12] = test system: Amaranthus retroflexus (AMARE); test: Herbicidal pre-emergence action, section C (Table C11); conditions: visual grading after ca. 3 weeks
Text: as §1

Zea mays (ZEAMX) [13] = test: Post-emergence effects on crop plants, section F (Table F1)
How it was run: as §6

Glycine max (GLXMA) [14] = test: Pre-emergence effects on crop plants, section D (Table D4); conditions: visual grading after ca. 3 weeks
Text: as §3, §4, §5

[15] = test system: Polygonum convolvulus (POLCO); test: Herbicidal post-emergence action, section E (Table E7); conditions: Fallopia convolvulus, 504 h, application rate 320 g/ha, visual assessment ca. 3 weeks after spraying, read-out: post-emergence activity against POLCO in %
Text: as §2, with “plants).” for “plants). Tables F1 to F4 below show the effects of selected compounds of the general formula (I) according to Table 1 on various crop plants and an application rate corresponding to 320 g/ha or below obtained by the experimental procedure mentioned above.”

Veronica persica (VERPE) [16] = test: Herbicidal pre-emergence action, section C (Table C10); conditions: application rate 320 g/ha, visual grading after ca. 3 weeks
Text: as §1

[17] = test system: Digitaria sanguinalis (DIGSA); test: Herbicidal pre-emergence action, section C (Table C12); conditions: Digitaria sanguinalis, pre-emergence, 504 h; application rate 320 g/ha; visual grading after ca. 3 weeks; read-out: pre-emergence activity against DIGSA in %
Text: as §1

Kochia scoparia (KCHSC) [18] = test: Herbicidal post-emergence action, section E (Table E11); conditions: visual assessment ca. 3 weeks after spraying
Text: as §2, with “plants).” for “plants). Tables F1 to F4 below show the effects of selected compounds of the general formula (I) according to Table 1 on various crop plants and an application rate corresponding to 320 g/ha or below obtained by the experimental procedure mentioned above.”

Kochia scoparia (KCHSC) [19] = test: Herbicidal pre-emergence action, section C (Table C13); conditions: application rate 320 g/ha, visual grading after ca. 3 weeks
Text: as §1

[20] = test system: Polygonum convolvulus (POLCO); test: Herbicidal pre-emergence action, section C (Table C7); conditions: application rate 320 g/ha; visual grading after ca. 3 weeks
Text: as §1

[21] = Glycine max, 504 h, application rate 320 g/ha, read-out: post-emergence activity against GLXMA in %
[22] = Triticum aestivum, 504 h, application rate 320 g/ha, read-out: post-emergence activity against TRZAS in %
[23] = Zea mays, 504 h, application rate 320 g/ha, read-out: post-emergence activity against ZEAMX in %
[24] = crop plant damage, application rate 320 g/ha

Row | SMILES | pre-emergence activity against TRZAS in % (crop plant damage) ([2]; application rate 320 g/ha) [%] | pest or weed control at 320 g/ha [3] [%] | pest or weed control at 320 g/ha (Setaria viridis (SETVI)) [%] | pre-emergence activity against BRSNW in % (crop plant damage) (Brassica napus (BRSNW) [5]; application rate 320 g/ha) [%] | pre-emergence activity against ZEAMX in % (crop plant damage) (Zea mays (ZEAMX) [6]; application rate 80 g/ha) [%] | percent crop plant damage at 320 g/ha (Glycine max (GLXMA) [7]; [21]) [%] | pest or weed control at 320 g/ha (Veronica persica (VERPE) [8]) [%] | crop plant damage (phytotoxicity) in % at 80 g/ha (Brassica napus (BRSNW) [11]) [%] | pre-emergence activity against ZEAMX in % (crop plant damage) (Zea mays (ZEAMX) [6]; application rate 320 g/ha) [%] | percent crop plant damage (wheat, post-emergence) at 320 g/ha [10, 22] [%] | percent crop plant damage (phytotoxicity) on Zea mays, post-emergence at 320 g/ha (Zea mays (ZEAMX) [13]; [23]) [%] | pre-emergence activity against GLXMA in % (crop plant damage) (Glycine max (GLXMA) [14]; application rate 80 g/ha) [%] | further results
1 | O=C(C1CCCC1)N1CSc2cc(Br)c(-c3ccccc3F)nc21 [Example I-021, [6-bromo-5-(2-fluorophenyl)[1,3]thiazolo[4,5-b]pyridin-3(2H)-yl](cyclopentyl)methanone] | 0 | 90 | 80 | 0 | 0 | 20 | 80 | 10 |  |  |  |  | pest or weed control at 320 g/ha [1]: 80%; percent crop plant damage at 80 g/ha (Oryza sativa (ORYZA) [4]; application rate 80 g/ha): 10%; pre-emergence activity against ORYZA in % (crop plant damage) (Oryza sativa (ORYZA) [9]; application rate 80 g/ha): 10%; percent crop plant damage (wheat, post-emergence) at 80 g/ha ([10]; Triticum aestivum, 504 h, application rate 80 g/ha, read-out: post-emergence activity against TRZAS in %): 0%; pest or weed control at 80 g/ha ([12]; Amaranthus retroflexus, pre-emergence, 504 h, application rate 80 g/ha, read-out: pre-emergence activity against AMARE in %): 100%; percent crop plant damage (phytotoxicity) on Zea mays, post-emergence at 80 g/ha (Zea mays (ZEAMX) [13]; Zea mays, 504 h, application rate 80 g/ha, read-out: post-emergence activity against ZEAMX in %): 10%
2 | O=C(c1ccccc1C(F)(F)F)N1CSc2cc(Br)c(-c3ccccc3Cl)nc21 [Example I-061, [6-bromo-5-(2-chlorophenyl)[1,3]thiazolo[4,5-b]pyridin-3(2H)-yl][2-(trifluoromethyl)-phenyl]methanone] | 0 |  |  | 20 |  | 0 |  | 0 | 0 | 0 | 20 |  | percent crop plant damage at 320 g/ha (Oryza sativa (ORYZA) [4]; application rate 320 g/ha): 0%; pre-emergence activity against ORYZA in % (crop plant damage) (Oryza sativa (ORYZA) [9]; application rate 320 g/ha): 20%; pre-emergence activity against GLXMA in % (crop plant damage) (Glycine max (GLXMA) [14]; application rate 320 g/ha): 0%
3 | CS(=O)(=O)N1C[S+]([O-])c2cc(Br)c(-c3ccccc3Cl)nc21 (stereo not shown) [Example I-133] |  | 100 | 100 |  |  |  | 80 | 0 | 20 | 0 | 0 | 20 | pre-emergence activity against TRZAS in % (crop plant damage) ([2]; application rate 80 g/ha): 0%; pest or weed control at 320 g/ha [15]: 80%; pest or weed control at 320 g/ha (Veronica persica (VERPE) [16]; Veronica persica, pre-emergence, 504 h, read-out: pre-emergence activity against VERPE in %): 80%; percent crop plant damage at 80 g/ha (Glycine max (GLXMA) [7]; Glycine max, 504 h, application rate 80 g/ha, read-out: post-emergence activity against GLXMA in %): 0%; pest or weed control at 320 g/ha [17]: 100%; pest or weed control at 80 g/ha (Kochia scoparia (KCHSC) [18]; Bassia scoparia, 504 h, application rate 80 g/ha, read-out: post-emergence activity against KCHSC in %): 90%; pest or weed control at 320 g/ha (Kochia scoparia (KCHSC) [19]; Bassia scoparia, pre-emergence, 504 h, read-out: pre-emergence activity against KCHSC in %): 90%
4 | COCCOCCOCC(=O)N1CSc2cc(Br)c(-c3cccc(F)c3F)nc21 [Example I-148] | 0 |  |  |  | 0 |  |  |  |  |  |  | 0 | pre-emergence activity against VERPE in % (Veronica persica (VERPE) [16]): 80%; pre-emergence activity against BRSNW in % (crop plant damage) (Brassica napus (BRSNW) [5]; application rate 80 g/ha): 0%; post-emergence activity against GLXMA in % (Glycine max (GLXMA) [7]; [24]): 0%; post-emergence activity against TRZAS in % [10, 24]: 0%; post-emergence activity against KCHSC in % (Kochia scoparia (KCHSC) [18]; application rate 320 g/ha): 80%; pre-emergence activity against POLCO in % [20]: 80%; pre-emergence activity against KCHSC in % (Kochia scoparia (KCHSC) [19]): 90%; post-emergence activity against BRSNW in % (Brassica napus (BRSNW) [11]; crop plant damage): 20%; pre-emergence activity against AMARE in % ([12]; application rate 320 g/ha): 90%; post-emergence activity against ZEAMX in % (Zea mays (ZEAMX) [13]; [24]): 0%
